Measurements taken from paper PMC11221653, “Isolation and characterization of plant-derived exosome-like nanoparticles from Carica papaya L. fruit and their potential as anti-inflammatory agent” (PLOS ONE, 2024).

Tests used:
[1] = design: method as in PMID 35494787; conditions: concentration 17.5 μM; ref [87]; cited from earlier work
[2] = tested on: NO production in LPS-induced RAW 264.7 cells; test: Nitric oxide assay (Griess reagent, nitrite); assay type: cell-based; conditions: PDENs 5, 10, 20 μg/mL or dexamethasone 1 μg/ml for 24 h, then LPS 50 ng/mL for 6 h
Experimental: RAW 264.7 cells were cultured in 96-well plates, with a density of 1 × 10^4 cells per well and incubated for 24 hours. Following this, they were exposed to various concentrations of PDENs (0, 5, 10, and 20 μg/ml) and dexamethasone (1 μg/ml) (Sigma-Aldrich, USA) for 24 hours. Thereafter, the cells were treated with LPS (50 ng/mL) (Sigma-Aldrich, USA) for an additional 6 hours. To measure the nitric oxide in the culture media, we utilized the Protocol from Griess Reagent Kit for Nitrite Determination (G-7921) (Thermo Fisher Scientific, USA). Briefly, 50 microliters of cell culture medium from each treatment were mixed with Griess reagent (1:1) and incubated for 15 minutes in the dark. The samples were measured at a wavelength of 540 nm using a microplate reader Bio-Rad iMark.

SMILES | radical scavenging activity [1] | NO production versus LPS-induced cells [2]
CC1=C(O)C(=O)C(O)CO1 (stereo not drawn) [DDMP, 2,3-dihydro-3,5-dihydroxy-6-methyl-4H-pyran-4-one] | 81.1% | –
Cc1cc(C(C)(C)C)c(O)c(C(C)(C)C)c1 [butylated hydroxytoluene] | 58.4% | –
C[C@@H]1C[C@H]2[C@@H]3CCC4=CC(=O)C=C[C@]4(C)[C@@]3(F)[C@@H](O)C[C@]2(C)[C@@]1(O)C(=O)CO [dexamethasone] | – | significantly reduce NO production
